Results on 86 molecules are retold here after PubChem BioAssay AID2305 (GlaxoSmithKline (GSK), 2010).

Structures are written as SMILES.

The assay deals with P. falciparum 3D7 growth, pLDH absorbance. Kind of assay: blood-stage malaria parasite growth potency – strain 3D7, dose response (AID 2305).
The IC50 is the concentration that gives 50% inhibition. As for `OC1CCCN(Cc2ccc(-c3ccc(-c4nc5ccccc5[nH]4)cc3)cc2)C1` (stereo unspecified), the IC50 is 840 nM. Next, `CN(C)S(=O)(=O)c1ccc(C(=O)N(c2nc(-c3ccccc3)cs2)C2CCCCC2)cc1`: 760 nM. Take `CN(C)Cc1cccc(-c2cnc(N)c(-c3nc4ccc(S(C)(=O)=O)cc4[nH]3)c2)c1`: the IC50 worked out at 890 nM.

Take `COCn1ncc2cc(-c3cccc(NC(=O)c4csc(NC(C)=O)n4)c3)ccc21`: the IC50 turned out to be 990 nM. The IC50 values of the last two molecules are within 1.5-fold of each other. `N#Cc1ccc(-c2ccc(C(=O)NCC3CCN(CCN4CCC(c5ccc6c(c5OCC(N)=O)CCCC6)CC4)CC3)cc2)cc1`: the IC50 turned out to be 440 nM. Regarding `O=C(/C=C/c1ccc(Cl)c(Cl)c1)NCCCCCN1CCCC(CNC(=O)c2sc3ccccc3c2Cl)C1` (stereo unspecified), the IC50 was determined as 870 nM. With `CC(C)(CNC(=O)/C=C/c1ccc(C(F)(F)F)cc1)CNc1cc(=O)c2ccccc2[nH]1`, the IC50 is 910 nM. The IC50 values of the last two molecules are within 1.5-fold of each other. Next, `CCCCCCNC(=O)C1Cc2c([nH]c3cc(Cl)ccc23)C2(CCN(Cc3ccccc3)CC2)N1` (stereo unspecified): 900 nM; `O=C(Nc1ccc(N2CCC(Nc3ccccn3)CC2)cc1)c1cnc(Cl)c(Cl)c1`: 1190 nM; `O=C(/C=C/c1cc(F)c(F)cc1F)N1CCC(CN2CCC(c3c[nH]c4ccccc34)CC2)CC1`: 1000 nM. Next, `CCCc1cc(Cc2cnc(N)nc2N)cc2c1OC(C)(C)C2`: 1080 nM; `COc1ccc(-n2ccnc2SCC(=O)Nc2cc(C)ccc2C)c(OC)c1`: 200 nM; `CN1CCN(CCCN(Cc2csc(-c3ccc(CNCc4ccccc4)cc3)n2)S(=O)(=O)c2ccccc2Cl)CC1`: 880 nM.

Take `CCCc1c(Cl)cc(CNCCCNc2nc3ccncc3[nH]2)cc1Cl`: the IC50 was 740 nM. `CCOc1ccc(Nc2nc(N)c3ccccc3n2)cc1` returned a 50% inhibitory concentration (IC50) of 1150 nM.

Molecule `CCn1c(-c2nonc2N)nc2c(-c3cccc(Cl)c3)ncc(OCCCNCCc3cnc[nH]3)c21` returned an IC50 of 980 nM. In turn, `Cc1nn(C)c(C)c1CN(Cc1nc(-c2cccc(Oc3ccccc3)c2)oc1C)C1CC1` had a concentration for half-maximal inhibition (IC50) of 390 nM. Compared with the last molecule, the IC50 is about 2.5-fold lower. As to `CCCOc1ccccc1C(=O)Nc1nonc1-c1ccc(OCC)c(OCC)c1`, the IC50 was 710 nM. Next, `NC(N)=NN=Cc1c2ccccc2c(Cl)c2c(Cl)cccc12`: 880 nM.

Molecule `COc1ccc2nc(-c3cc(-c4ccc(NC(C)=O)cc4)cnc3N)[nH]c2c1` had an IC50 of 1240 nM.

`COc1cc2nc(NCCCN3CCCCC3)nc(NCc3ccccc3)c2cc1OC` came in with an IC50 of 1000 nM.

`CC(C)Nc1cc(C(=O)N[C@@H](Cc2ccccc2)[C@H](O)CNC2CCOCC2)c(F)c(N2CCCCS2(=O)=O)c1` came in with a 50% inhibitory concentration (IC50) of 180 nM.

`c1cc(C2=N[C@H]3CCCC[C@@H]3N2)ccc1OCCCCCOc1ccc(C2=N[C@@H]3CCCC[C@H]3N2)cc1` displayed a 50% inhibitory concentration (IC50) of 230 nM. `Cc1[nH]c(C)c(-c2ccc(C(F)(F)F)cc2)c(=O)c1Br` returned an IC50 of 140 nM.

`COc1ccc(CN(C2CC2)C(C)C(=O)c2[nH]c(C)c(C(C)=O)c2C)cc1` (stereo unspecified) showed a concentration for half-maximal inhibition (IC50) of 1590 nM. Molecule `Cc1ccc(NC(=O)c2ccc(C(=O)NC3CCN(CC4CCCCC4)CC3)cc2)cc1` had a 50% inhibitory concentration (IC50) of 900 nM. This IC50 is about 1.8-fold lower than that of the molecule before.

Molecule `O=C(Nc1ccc(N2CCN(Cc3cccc(F)c3)CC2)cc1)c1cccs1` gave a half-inhibitory concentration (IC50) of 680 nM. In turn, `COc1cccc2sc(N3CCN(C(=O)c4ccc([N+](=O)[O-])o4)CC3)nc12` showed an IC50 of 870 nM. Regarding `CN(C)c1ccc(-c2ccc(C(=O)NC3CCN(Cc4ccccc4)CC3)s2)cc1`, the IC50 was found to be 1050 nM. The IC50 values of the last two molecules are within 1.5-fold of each other. Turning to `NC1CCN(CCNCc2cccc(-c3ccc(-c4nc5ccc(F)cc5[nH]4)cc3)c2)C1` (stereo unspecified), the half-maximal inhibitory concentration (IC50) is 730 nM. `CC(C)NC(=O)Cn1cc(C2CCN(CC3CCN(C(=O)/C=C/c4ccc(Cl)c(Cl)c4)CC3)CC2)c2ccccc21` yielded an IC50 of 1030 nM. `O=C(Cc1cnc[nH]1)Nc1cccc(-c2cccc(-c3nc4ccc(F)cc4[nH]3)c2)c1` registered an IC50 of 780 nM.

`Cc1cc(-c2ccc3c(c2)CCN(CCC2CCC(NC(=O)/C=C/c4ccc(F)cc4)CC2)CC3)on1` (stereo unspecified) came in with a 50% inhibitory concentration (IC50) of 720 nM. Next, `Cc1cc(N[C@@H](CC(C)C)C(=O)NCCOc2ccccc2)nc(NCCc2ccccc2)n1`: 1510 nM; `COc1ccc2c(NN=Cc3ccc(F)cc3)ccnc2c1`: 440 nM; `Cc1ccnc(Nc2nc(-c3ccccn3)cs2)c1`: 1000 nM. Molecule `COc1ccc2c(c1)ncn2-c1cc(OCc2ccncc2Br)c(C(N)=O)s1` showed a 50% inhibitory concentration (IC50) of 610 nM. In the case of `O=C(NCc1ccccc1F)c1ccc(N2CCC(NCc3cccc(-n4cccn4)c3)CC2)cc1`, the IC50 was determined as 1730 nM.

Turning to `O=C(/C=C/c1ccc(Cl)c(Cl)c1)NCCC(CN1CCC(c2c[nH]c3ccccc23)CC1)c1ccccc1` (stereo unspecified), the half-maximal inhibitory concentration (IC50) amounted to 570 nM. As to `Cc1cc(C=C2SC(=Nc3ccccc3)N(C3CCCC3)C2=O)c(C)n1-c1ccc(Cl)cc1`, the IC50 came to 880 nM. Next, `Cc1ccccc1Cc1cccc(/N=C(\N)Nc2ccc(Cl)cc2)n1`: 680 nM; `COc1cc(NC(=O)c2ccc3oc4ccccc4c3c2)ccc1OCCN1CCCCC1`: 920 nM. `COc1cc(N(C)Cc2cnc3nc(N)nc(N)c3n2)cc(OC)c1OC` showed a half-inhibitory concentration (IC50) of 440 nM. The molecule `CN(Cc1cccc(F)c1)C1CCN(c2cc(NC(=O)c3ccc(F)cc3)ccn2)C1` (stereo unspecified) had a 50% inhibitory concentration (IC50) of 1230 nM. `CCOC(=O)c1ccc(NC(=O)Nc2ccc(-c3ccc(-c4nc5ccccc5[nH]4)cc3)cc2)cc1` yielded an IC50 of 20 nM.

With `COc1ccc2nccc([C@@H](O)CN3CCC(NC(=O)c4ccc5nc(-n6cccc6)sc5c4)CC3)c2c1`, the IC50 came out at 1000 nM. Next, `CC(C)(C)c1ccc(CN2CCC(NC(=O)c3cc(-c4cccc(C(F)(F)F)c4)cs3)C2)cc1` (stereo unspecified): 810 nM. Molecule `Cc1cn(CC(=O)Nc2cccc(-c3cccc(-c4nc5c(C)cccc5[nH]4)c3)c2)c(=O)[nH]c1=O` showed an IC50 of 580 nM. This IC50 and that of the molecule before are within 1.5-fold of each other. `O=C(Nc1ccc(OC2CCN(Cc3ccccc3)C2)c(Cl)c1)c1ccc(F)cc1` (stereo unspecified) displayed an IC50 of 790 nM. As to `CC(C)N=C(N)NN=Cc1ccc(Cl)c(Cl)c1`, the IC50 is 530 nM.

As for `Cc1cc(NCC(c2ccccc2)c2ccccc2)nc(NCC2CCCCC2)n1`, the IC50 is 510 nM. Consider `COC(=O)C(C)(C)Cc1c(SC(C)(C)C)c2cc(C(C)C)ccc2n1Cc1ccc(Cl)cc1`, for which the half-maximal inhibitory concentration (IC50) is 850 nM.

For `Cc1cc(NC2CCN(CC3CCCCC3)CC2)nc(Nc2ccccc2Cl)n1`, the 50% inhibitory concentration (IC50) came to 640 nM.

With `COc1c(C2CCN(CCCCNC(=O)c3cc(-c4ccc(Cl)cc4)sc3C)CC2)ccc2c1CCCC2`, the IC50 is 630 nM. The IC50 values of the last two molecules are within 1.5-fold of each other. Regarding `CCOc1ccc(C(=O)Nc2cc(Br)c3c(c2)CNCC3)cc1Cl`, the IC50 was found to be 1040 nM. With `CCCCN1CC[C@@H](CCC(O)c2cc(OCCC)nc3ccc(OC)cc23)[C@@H](CC)C1` (stereo partly specified), the IC50 is 360 nM.

For the molecule `c1ccc(COc2ccccc2COc2ccccc2-c2ccc3cccnc3n2)cc1`, the IC50 turned out to be 920 nM. This IC50 lies about 2.6-fold higher than the previous one. On to `CC(C)N1CCN(CCCCNc2c3ccccc3nc3ccccc23)CC1`, for which the IC50 was determined as 540 nM.

Regarding `Cc1cccc2[nH]c(-c3cccc(-c4cccc(CNCC5CCCO5)c4)c3)nc12` (stereo unspecified), the concentration for half-maximal inhibition (IC50) was found to be 600 nM. As for `CC[C@H](C)CNC(=O)c1cncc(-c2ccc(CNC3CCCC3)cc2)c1`, the IC50 was found to be 1120 nM. `O=C(N[C@@H](CC1CCCCC1)C(=O)NC1CCCCC1)c1ccc(O)c(-c2cccc(C(F)(F)F)c2)c1` returned an IC50 of 750 nM.

Molecule `CC[C@H]1CN2CC[C@@H]1C[C@H]2[C@H](O)c1cc(N2CCSCC2)nc2ccc(OC)cc12` showed an IC50 of 200 nM. Next, `COc1ccc(C(=O)N[C@@H](CC(C)C)C(=O)N[C@H](/C=N/NC(=O)c2ccccc2)CCc2ccccc2)cc1OCCN1CCOCC1`: 170 nM. `O=C(CC1CCCC1)Nc1ccc2c(c1)CCC2` registered an IC50 of 870 nM. Compared with the last molecule, the IC50 is about 5.1-fold higher. As to `CC(=O)Nc1cccc(C(=O)Nc2cccc(-c3ccc(-c4nc5ccc(F)cc5[nH]4)s3)c2)c1`, the half-maximal inhibitory concentration (IC50) amounted to 900 nM. Regarding `CNCCNCc1ccc(-c2ccc(-c3nc4ccc(F)cc4[nH]3)s2)cc1`, the IC50 turned out to be 770 nM. As for `O=C(NCC1CCN(CC2CCCCC2)C1)c1cc(-c2cccc(Cl)c2)cs1` (stereo unspecified), the half-inhibitory concentration (IC50) amounted to 1090 nM. The IC50 values of the last two molecules are within 1.5-fold of each other.

With `CS(=O)(=O)Nc1cccc(-c2cnc3[nH]cc(-c4ccc(C(=O)O)c(F)c4)c3c2)c1`, the half-inhibitory concentration (IC50) came to 830 nM. Molecule `CCN(CC)C(=NCCCCCCN=C(/N=C(\N)c1ccc(Cl)cc1)N(CC)CC)/N=C(\N)c1ccc(Cl)cc1` had an IC50 of 380 nM. Molecule `Cc1cc(OCCCN2CCCCC2)ccc1NC(=O)COc1ccc(Cl)cc1C(=O)c1cc(Cl)cc(C#N)c1` gave a half-maximal inhibitory concentration (IC50) of 890 nM.

As to `Cc1nc2c(Nc3nc(-c4ccncc4)cs3)ncnc2n1-c1ccccc1Cl`, the IC50 amounted to 180 nM. In turn, `CN(c1ccccc1C(=O)Nc1ccccc1Oc1ccccc1)S(=O)(=O)c1ccccc1` had an IC50 of 1150 nM. `CCOc1cc(C(=O)NCc2ccc(Cl)c(Cl)c2)ccc1-c1nc2ccc(Cl)cc2[nH]1` had an IC50 of 800 nM. Regarding `Cc1ccc2c(NN=Cc3ccc(Cl)cc3)cc(C)nc2c1`, the IC50 was found to be 950 nM. This IC50 and that of the molecule before are within 1.5-fold of each other. `COc1ccc(N(c2nc(-c3cc(Cl)ccc3Cl)cs2)C2CCNCC2)cc1` yielded a half-inhibitory concentration (IC50) of 1090 nM. For the molecule `O=C(NCCCCN1CCN(c2cccc3c2OCCO3)CC1)c1ccc(NC(=O)c2cc(Cl)cc(Cl)c2)cc1`, the IC50 was 220 nM. In turn, `CN(CCCN(C)c1cc(NC(=O)c2ccc(F)cc2)ccn1)Cc1cccc(O)c1` yielded an IC50 of 1210 nM. `Cc1ccc(CN=C(N)NC(=O)c2nc(Cl)c(NCc3ccc(Cl)cc3)nc2N)c(C)c1` came in with an IC50 of 170 nM. As to `COc1cc(Nc2nccn3c(-c4ccsc4)cnc23)cc(OC)c1OC`, the IC50 amounted to 890 nM. In turn, `CC(C)C1=C[C@H]2C[C@]3(C4OCCO4)[C@@H]4CC[C@@H](C)[C@H]4C[C@@]2(COCc2cccc(C#N)c2)[C@]13C(=O)OC(c1ccccc1)c1ccccc1` showed a half-maximal inhibitory concentration (IC50) of 1790 nM. Next, `CCOC(=O)c1[nH]c2ccc(F)cc2c1NC(=O)CN1CCN(c2cccc(C(F)(F)F)c2)CC1`: 460 nM; `COc1ccc(NC(=O)Nc2ccc(-c3ccc(-c4nc5c(C)cccc5[nH]4)s3)cc2)cc1`: 180 nM.

With `CCOC(=O)/C(=N\OC(C(=O)OC(C)(C)C)c1ccccc1)c1csc(NC(c2ccccc2)(c2ccccc2)c2ccccc2)n1` (stereo unspecified), the IC50 turned out to be 1110 nM.

`O=C(Nc1cccc(C(F)(F)F)c1)c1ccc(S(=O)(=O)NC2CCN(CC3CCCCC3)CC2)cc1` showed an IC50 of 1160 nM. As for `Cc1c(OC(C)C)nc2ccccc2c1C(=O)N[C@H](c1cccc(F)c1)C1CC1`, the 50% inhibitory concentration (IC50) stood at 1090 nM.

As to `CN(C)Cc1cc2c(O)c(Cc3ccccc3)ccc2o1`, the concentration for half-maximal inhibition (IC50) was 1090 nM.
